Laboratory results published in PubChem BioAssay (NCI).
Where “and” joins values, the source holds several entries; their conditions need not be identical. Equal entries are not always repeated.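 The compound was tested at five concentrations on cells cultured in 96-well plates, with a 48-hour exposure period. Here, GI50 denotes the concentration required for 50% inhibition of growth. The concentration for full growth arrest is given as TGI.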

Legend:
Assay in all cases: NCI tumour cell line growth inhibition, 48 h
MDA-N = test system: MDA-N
DLD-1 colon = test system: DLD-1 colon
DMS 114 small cell lung = test system: DMS 114 small cell lung
LXFL 529 NSCLC = test system: LXFL 529 NSCLC
XF 498 CNS = test system: XF 498 CNS
HOP-18 NSCLC = test system: HOP-18 NSCLC
M19-MEL melanoma = test system: M19-MEL melanoma
SNB-78 CNS = test system: SNB-78 CNS
P388/ADR leukemia = test system: P388/ADR leukemia
SN12K1 renal = test system: SN12K1 renal
RXF-631 renal = test system: RXF-631 renal

Row | Structure (SMILES) | TGI (MDA-N) | TGI (DLD-1 colon) [µM] | TGI (DMS 114 small cell lung) [µM] | TGI (LXFL 529 NSCLC) [µM] | TGI (XF 498 CNS) [µM] | TGI (HOP-18 NSCLC) [µM] | TGI (M19-MEL melanoma) [µM] | TGI (SNB-78 CNS) [µM] | other results
1 | CC1(C)CCC(C)(C)c2c1ccc(O)c2Cc1c(O)ccc2c1C(C)(C)CCC2(C)C | 3.73 µM | – | – | – | – | – | – | – | –
2 | CN(C)CCOC(c1ccccc1)c1ccccc1 | 50.1 µM and > 100 µM | – | – | – | – | – | – | – | GI50 (MDA-N): 29.4 µM
3 | CSCCOC(=O)C(=[N+]=[N-])c1ccc([N+](=O)[O-])cc1 | – | > 100 | > 100 | > 100 | > 100 | – | – | – | –
4 | CC1OC(OC2C(CO)OC(O[C@H]3CC[C@@]4(C)C(=CC[C@H]5[C@@H]6C[C@@H]7O[C@]8(CC[C@@H](C)CN8)[C@@H](C)[C@@H]7[C@@]6(C)CC[C@@H]54)C3)C(O)C2O)C(O)C(O)C1O (stereo partly drawn) | – | > 100 | > 100 | > 100 | > 100 | > 100 | > 100 | > 100 | –
5 | CCOc1ccccc1NC(=O)CCc1n[nH]c(=S)o1 | – | > 100 | – | > 100 | > 100 | – | > 100 | > 100 | –
6 | CNC(=O)c1cccc2c(Nc3ccc(NS(C)(=O)=O)cc3OC)c3cccc(C)c3nc12 | – | – | 1.25 | 6.74 | 3.25 | 3.36 | 8.54 | – | TGI (P388/ADR leukemia): 1.07 µM; TGI (SN12K1 renal): 1.61 µM
7 | CC1=C[P+](Cc2ccccc2)(c2ccccc2)CC1 (stereo not drawn) | – | > 100 | > 100 | > 100 | 78.2 | > 100 | > 100 | > 100 | GI50 (XF 498 CNS): 25 µM
8 | O=C(NCC(O)CNC(=O)C(F)(F)F)C(F)(F)F | – | > 100 | > 100 | > 100 | > 100 | > 100 | > 100 | > 100 | –
9 | CC[C@@]1(O)C(=O)OCc2c1cc1n(c2=O)Cc2c-1nc1cc3c(cc1c2C)OCO3 | > 100 µM | – | – | – | – | – | – | – | –
10 | CC(C)(C)OC(=O)NC(CO)c1cccc(OCc2ccccc2)c1 (stereo not drawn) | – | > 100 | > 100 | > 100 | > 100 | > 100 | > 100 | > 100 | –
11 | CSc1ncnc2c1ncn2C1OC(CO)C(O)OC1O (stereo not drawn) | 27.7 µM | – | – | – | – | – | – | – | –
12 | CCOC(=O)C(C)(C)C(O)C(C)C (stereo not drawn) | > 100 µM | – | – | – | – | – | – | – | –
13 | O=C1CC(O)(c2ccccc2)C(c2ccccc2)=C1c1ccccc1 (stereo not drawn) | – | > 100 | 89.8 | > 100 | 73.5 | – | 91.4 | > 100 | –
14 | NC1=NCCN1CC(=O)O | > 10000 µM | – | – | – | – | – | – | – | –
15 | COC(=O)c1ccc(Cl)cc1NC(=O)C1CCCCC1 | – | – | > 100 | > 100 | – | – | > 100 | > 100 | –
16 | C[n+]1ccc(-c2c3nc(c(-c4cc[n+](C)cc4)c4ccc([n-]4)c(-c4cc[n+](C)cc4)c4nc(c(-c5cc[n+](C)cc5)c5ccc2[n-]5)C=C4)C=C3)cc1.[I-].[Zn+2] | – | 84.3 | 22.6 | 43 | – | 41.3 | 28.3 | 69.6 | GI50 (DLD-1 colon): 29.3 µM; GI50 (DMS 114 small cell lung): 7.11 µM; GI50 (HOP-18 NSCLC): 16.9 µM; GI50 (LXFL 529 NSCLC): 20.1 µM; GI50 (M19-MEL melanoma): 10.3 µM; GI50 (RXF-631 renal): 17.1 µM; TGI (RXF-631 renal): 46.8 µM; GI50 (SNB-78 CNS): 23.3 µM
17 | Fc1cccc2c1cc1ccc3cccc4ccc2c1c34 | – | > 100 | – | > 100 | > 100 | > 100 | > 100 | > 100 | –
18 | N#C/C(=C/Sc1ccccc1)C(=O)O | – | > 100 | 35.8 | > 100 | > 100 | > 100 | 74 | 59.5 | –

Row | Structure (SMILES) | TGI (MDA-N) | TGI (DLD-1 colon) [µM] | TGI (DMS 114 small cell lung) [µM] | TGI (LXFL 529 NSCLC) [µM] | TGI (XF 498 CNS) [µM] | TGI (HOP-18 NSCLC) [µM] | TGI (M19-MEL melanoma) [µM] | TGI (SNB-78 CNS) [µM] | other results
19 | CCCCCCCCCCCCCCCCOP(=O)(O)OP(=O)(O)OCC1OC(n2ccc(N)nc2=O)C(O)C1O (stereo not drawn) | > 100 µM | – | – | – | – | – | – | – | –
20 | COc1ccc2c(c1OC)OCC(CN(C)C)C2=O (stereo not drawn) | 32.4 µM | – | – | – | – | – | – | – | –
21 | COc1cc2c(cc1OC)C(=O)Cc1ccc(OC)c(OC)c1CN(C)CC2 | – | > 100 | > 100 | > 100 | > 100 | > 100 | > 100 | > 100 | TGI (RXF-631 renal): > 100 µM
22 | O=C(NC1C2CC3CC(C2)CC1C3)c1cc(/C=C/c2ccccc2)[nH]c(=S)n1 (stereo not drawn) | – | > 100 | > 100 | > 100 | > 100 | – | > 100 | > 100 | TGI (RXF-631 renal): > 100 µM
23 | COc1ccc(OC(C(=O)O)c2ccccc2)c2c1CCCC2=O (stereo not drawn) | – | > 100 | > 100 | > 100 | > 100 | > 100 | > 100 | > 100 | TGI (RXF-631 renal): > 100 µM
24 | OC1C2CCC1C1C3C=CC(C3)C21 (stereo not drawn) | – | > 100 | > 100 | > 100 | > 100 | > 100 | > 100 | > 100 | –
25 | Cc1cc2c(c3oc(C4(C)OC4C4OC4C)cc(=O)c13)C(=O)c1c(O)c(C3CC(C)(N(C)C)C(O)C(C)O3)cc(C3CC(N(C)C)C(O)C(C)O3)c1C2=O (stereo not drawn) | 0.000228 µM | – | – | 0.0117 | 0.00068 | 0.00334 | – | – | GI50 (DLD-1 colon): 0.00017 µM; TGI (RXF-631 renal): 0.123 µM; GI50 (SNB-78 CNS): 0.000187 µM; GI50 (XF 498 CNS): 0.000187 µM
26 | c1ccc2c(c1)[nH]c1c2nc2ncccn21 | – | > 100 | > 100 | > 100 | > 100 | – | > 100 | > 100 | TGI (RXF-631 renal): > 100 µM
27 | O=C1c2ccccc2C(=O)N1C/C=C/CO | – | > 100 | > 100 | > 100 | – | > 100 | > 100 | > 100 | –
28 | CC(=O)C1(N=Nc2ccc(S(N)(=O)=O)cc2)CCOC1=O (stereo not drawn) | > 100 µM | – | – | – | – | – | – | – | –
29 | O=c1oc(=O)c2oc3ccccc3oc1=2 | – | > 100 | > 100 | > 100 | > 100 | > 100 | > 100 | – | –
30 | O=S(O)CCCSSc1ccccc1 | – | > 100 | 67.6 | > 100 | > 100 | > 100 | > 100 | > 100 | –
31 | S=c1nc(Cl)cc2[nH]c(Cl)cn12 | 4.56 µM | – | – | – | – | – | – | – | –
32 | COc1cc(O)c2c(c1)C(=O)c1cc3c(c(O)c1C2=O)C(OC1OC(C)C(O)C(O)C1OC)C(OC)C(C)(O)C3=O (stereo not drawn) | – | 11.6 | 5.24 | – | 7.13 | 15.4 | 1.83 | 16.1 | TGI (P388/ADR leukemia): 59.6 µM; TGI (SN12K1 renal): 7.14 µM
33 | CCOC(=O)/C(C#N)=C1/C(O)=C(C(=O)OC)C(C(=O)OC)=C1C(=O)OC | – | > 100 | – | > 100 | – | – | > 100 | – | –
34 | O=c1oc2ccc(-n3c(=O)c4ccccc4c4ccccc4c3=O)cc2c2ccccc12 | > 100 µM | – | – | – | – | – | – | – | –
35 | O=c1c2ccccc2c2ccccc2c(=O)n1Cc1ccc2c(c1)OCO2 | 28.7 µM | – | – | – | – | – | – | – | –
36 | COc1ccc2nc3ccccc3c(NCCCN(C)CCCl)c2c1 | 2.02 µM | 3.68 | 1.68 | 1.53 | 0.77 | – | 1.9 | 2.27 | TGI (RXF-631 renal): 2.15 µM
